This is an account of results in US20110183904A1, “METHODS AND COMPOSITIONS FOR ALTERING BEHAVIOR ASSOCIATED WITH AUTISM SPECTRUM DISORDER” (The Children's Mercy Hospital, priority 2008, published 2011).

One test has as its system Gαs mRNA in PBMCs. Description: Gαs mRNA in PBMCs co-cultured with OT. It counts as cell-based, human. On the procedure:
(§1) Both Gαs and Gαq mRNA were measured after PBMCs were incubated with vehicle (untreated condition) and after co-culture with hormone. For some subjects, the PBMC quantity yielded insufficient mRNA for PCR analysis. Gαs PCR was completed on 10 ASD girls, 9 control girls, 10 ASD boys, and 9 control boys. Gαq PCR was completed on 10 ASD girls, 8 control girls, 10 ASD boys, and 9 control boys.
(§2) Samples were taken from the patients, as described in Example 1, and mRNA was isolated from cells exposed to oxytocin and analyzed for amount of mRNA expressing Gαs and Gαq.
(§3) PBMC isolation, hormone treatment and cell culture. PBMCs were isolated from heparinized blood using Histopaque 1077 (Sigma-Aldrich, St. Louis, Mo.). Briefly, 5 ml of blood was diluted 1:1 in PBS and carefully layered onto 3 ml of Histopaque 1077 in a 50 ml conical centrifuge tube. Tubes were centrifuged at 400 g for 30 min at RT. The buffy coat was removed from the tube and washed three times in complete RPMI without phenol red. Cell counts and viability were determined using Trypan blue. Cell viability was >95%. […]
(§4) RNA isolation and quantitation. […] RNA was examined by spectrophotometry and quantitated using the Ribogreen assay (Invitrogen, Carlsbad, Calif.). […] Ribogreen reagent (1:200) was added to samples and standards, and samples were read on a Bio-Tek FLx800 fluorescent plate reader. […]

For a further test, the system named is Gαq mRNA in PBMCs. Description: Gαq mRNA in PBMCs co-cultured with OT. Type of test: cell-based, human. On the procedure: as §1, §2, §3, §4
Test [1] has as its system Gαs mRNA and Gαq mRNA in PBMCs. Description: G-protein mRNA (Gαs and Gαq) in PBMCs exposed to oxytocin. It counts as cell-based, human. The procedure:
as §1, §2
PBMC isolation, hormone treatment and cell culture. PBMCs were isolated from heparinized blood using Histopaque 1077 (Sigma-Aldrich, St. Louis, Mo.). Briefly, 5 ml of blood was diluted 1:1 in PBS and carefully layered onto 3 ml of Histopaque 1077 in a 50 ml conical centrifuge tube. Tubes were centrifuged at 400 g for 30 min at RT. The buffy coat was removed from the tube and washed three times in complete RPMI without phenol red. Cell counts and viability were determined using Trypan blue. Cell viability was >95%. Resultant PBMC's were suspended in complete RPMI with 10% charcoal stripped, dilapidated fetal calf serum (FCS) (Invitrogen, Carlsbad, Calif.) and added in 1 ml aliquots to 12 well plate with vehicle and oxytocin (10 ^−7M, 10 ^−8M, and 10^−9M) in RPMI+10% charcoal stripped, dilapidated FCS. Cells were incubated overnight (18-24 hr) before wells were harvested and rinsed. Cell suspensions were centrifuged at 500 g for 10 min at RT, and supernatant was aspirated. Buffer RLT Plus from the RNeasy Mini Plus Kit (QIAgen, Valencia, Calif.) was added to the cell pellets before vortexing to lyse cells. Samples were stored at −80° C. before RNA purification and isolation.
RNA isolation and quantitation. Samples were thawed, vortexed, and placed in QIAshredder columns. Columns were centrifuged for 2 min at 15000 g. The homogenized lysate was transferred to a gDNA Eliminator spin column and centrifuged for 30 sec at 9000 g. Equal volumes of 70% ethanol were added to the eluent. The mixture was transferred to RNeasy spin columns and centrifuged for 15 sec at 9000 g. Columns were washed with Buffer RW1 and the Buffer RPE, centrifuging for 15 sec at 9000 g, each time discarding the eluent. Buffer RPE was again added and columns centrifuged for 2 min at 9000 g to dry the column. Columns were then centrifuged for 1 min at 15000 g. RNA was eluted with the addition of Nuclease-free water and spun for 1 min at 9000 g. RNA was examined by spectrophotometry and quantitated using the Ribogreen assay (Invitrogen, Carlsbad, Calif.). Samples were diluted 1:200. Standards of 0, 20, 100, 500, and 1000 ng/ml were made from E. coli ribosomal RNA in TE buffer. Ribogreen reagent (1:200) was added to samples and standards, and samples were read on a Bio-Tek FLx800 fluorescent plate reader. RNA was diluted in nuclease-free water to a final concentration of 150 ng/ml cDNA.
cDNA construction and one-step real-time RT-PCR. Reverse transcription was performed using the SuperScript II Reverse Transcription Kit (Invitrogen, Carlsbad, Calif.). First, any residual DNA was digested away with DNase I for 15 min, with DNase activity subsequently quenched with 25 mM EDTA at 65° C. for 15 min. 10 mM dNTP and 0.5 ug/ml oligo (dT) were added to DNase-treated samples at 65° C. for 5 min. […]

In test [2] the test system is Gαs and Gαq protein in PBMCs. Description: G-protein expression (Gαs and Gαq) in PBMCs exposed to oxytocin (immunoblot). Type of test: cell-based, human. On the procedure: Membrane preparation for membrane-associated proteins. For protein studies, PBMC's were manipulated at 4° C., as previously described in Example 4. PBMC's were individually homogenized (1:30, wt/vol) in ice-cold 0.25 M sucrose and 50 mM Tris-HCL, (pH 7.6) in a Dounce homogenizer, centrifuged twice at 800×g for 5 min before centrifugation of the supernatants at 30,000×g for 60 min. The pellet was resuspended in assay buffer and used directly in the binding assay. Protein concentration was determined by BCA protein assay kit (Pierce, Rockford, Ill.) using bovine serum albumin (BSA) as a standard.
Immunoblot analysis for membrane-associated proteins. Total membrane proteins were prepared as for receptor assays above. Samples were electrophoresed in 12% Tris-HCl resolving gels and transferred to 0.45 μm nitrocellulose membranes (Bio-Rad, Hercules, Calif.) by electroblotting. […] After three washes in TBST, membranes were incubated for 1 h in TBST and 1% non fat dry milk with horseradish peroxidase conjugated 2° antibodies (Jackson Immunoresearch, West Grove, Pa.). Bands were visualized by exposure of the membranes to autoradiographic film (MidSci, St. Louis, Mo.). The membranes were then stripped with Restore™ Western Blot Stripping Buffer (Pierce, Rockford Ill.) for 30 min at 37° C. and reprobed for actin protein as an internal control. The bands were quantified using a densitometer (GE Healthcare, Piscataway, N.J.).
Specific G protein antibodies. Specific Gαs and Gαq/11 antibodies made in rabbit without cross reactivity to other G proteins were used at a 1:500 dilution and originated from Santa Cruz Biotechnology (Santa Cruz, Calif.).
In general terms: A western blot detects proteins with antibodies after separation by electrophoresis.

Test [3] deals with Gαs in murine spleen cells. Description: Gαs expression in murine spleen cells exposed to OT (previous findings in this lab). To be noted: both sexes. It counts as cell-based.
The subject of another test is adults with ASD. To be noted: cited from earlier work.
For the next test, the system named is male university students. To be noted: intra-nasally; cited from earlier work.
[4] abbreviates: children with ASD versus controls.

Entries after “also recorded” stand apart in the source; their conditions may differ.

Take `CC[C@H](C)[C@@H]1NC(=O)[C@H](Cc2ccc(O)cc2)NC(=O)[C@@H](N)CSSC[C@@H](C(=O)N2CCC[C@H]2C(=O)N[C@@H](CC(C)C)C(=O)NCC(N)=O)NC(=O)[C@H](CC(N)=O)NC(=O)[C@H](CCC(N)=O)NC1=O` [OT, Oxytocin]: the “difference in Gαs mRNA expression between ASD and control PBMCs upon exposure to OT” value with Gαs mRNA in PBMCs (setting [4]) is given as “no longer observed; also recorded: did not have the significantly increased Gαs mRNA”. Also, the “sex differences in Gαs expression with OT exposure” value in the test on Gαs mRNA in PBMCs (girls versus boys, any group) is given as “not augmented”. For the same compound, the “difference in Gαq mRNA expression between ASD and control PBMCs upon exposure to OT” value with Gαq mRNA in PBMCs (setting [4]) is given as “no longer significant”. Besides, the “sex differences in Gαq mRNA expression with OT” value in the test with Gαq mRNA in PBMCs (girls versus boys) is recorded as “not augmented”. In test [1] (autistic males, compared with control females before exposure), the “mRNA pattern after exposure to oxytocin” value was “more feminine pattern”. For the same compound, the “mRNA levels after exposure to oxytocin” value is reported as “not seen” in test [1] (children with autism), “upward trend” in test [1] (females with autism), “not observed” in test [1] (males with autism) and “went up” in test [1] (non-autistic patients). Also, the “protein expression after exposure to oxytocin” value is recorded as “not seen” in test [2] (children with autism), “upward trend” in test [2] (females with autism), “not observed” in test [2] (males with autism) and “went up” in test [2] (non-autistic patients). In test [3], the “Gαs expression with exposure to OT” value is given as “c. Previous findings in this lab had found sex differences in Gαs in murine spleen cells as well as induction of Gαs expression in both sexes with exposure to OT,”. For the same compound, the affective speech comprehension result in the test on adults with ASD (OT infusion) was “improved”. Besides, the “severity and number of different types of repetitive behaviors” value in the test on adults with ASD (intravenous OT infusion) is recorded as “decreased”. In the test with male university students, the “trust and prosocial behavior” value was “might increase trust and prosocial behavior”.
